Laboratory results from patent publication US10702525B1, “Pyrimidine derivatives as anti-diabetic agents” (UNITED ARAB EMIRATES UNIVERSITY, priority 2019, dated 2020).

Experiments:
[1] = test system: βTC6 cells; assay: Insulin secretion from βTC6 cell line (insulin Sandwich ELISA); format: cell-based, murine; conditions: for insulin secretion compared to the basal control: absence of glucose; for insulin secretion compared to the basal control / insulin secretion compared to basal insulin secretion and to insulin secretion in the presence of glucose: 10^−15 M, 10^−12 M and 10^−9 M; for insulin secretion compared to the basal control / insulin secretion compared to basal insulin secretion and to insulin secretion in the presence of glucose / glucose-stimulated insulin release compared to basal controls (summary statement): βTC6 cells; for insulin secretion compared to basal insulin secretion and to insulin secretion in the presence of glucose: presence of 2.8 mM glucose
Protocol: Secretion of insulin by βTC6 cells was measured using the high range insulin Sandwich ELISA kit.

[2] = test system: βTC6 cells; assay: Glucose uptake assay (2-NBDG) in βTC6 cells; format: cell-based, murine; conditions: 10 μM sample, 450 μM 2-NBDG, ten minutes
Protocol: The glucose uptake assay was performed with a cell-based assay kit by incubating 450 μM 2-[N-(7-nitrobenz-2-oxa-1,3-diaxol-4-yl)amino]-2-deoxyglucose (2-NBDG, a fluorescently labelled deoxyglucose analog) and a 10 μM sample of the reference drug or the test compound with βTC6 cells for ten minutes and subsequently measuring the fluorescence at excitation and emission wavelengths of 485 nm and 535 nm, respectively, with a TECAN infinite M200 micro plate reader.

[3] = test system: Streptozotocin-injected (STZ) diabetic rats; assay: Fasting blood glucose level of STZ diabetic rats; format: in vivo, rat; conditions: for reduction in blood glucose level compared to control diabetic groups: 6 and 8 hours after treatment, n=6
From the text: These symptoms indicate the development of diabetes characterized by chronic and persistently elevated plasma glucose level. STZ induces diabetes by selectively destroying the insulin producing pancreatic endocrine cells. Decreased body weight in STZ-induced diabetic rats is believed to be caused by dehydration, and by breakdown and catabolism of fats and proteins. Increased catabolic reactions upon administering STZ result in muscle wasting, and subsequently, body weight loss.
Compounds 81c, 81f, 82c, and 82d, synthesized as described in Examples 1, 2, 5, and 6 were orally administrated to the treated groups of diabetic rats at a dose of 1.0 μM/kg. Fasting glucose levels in treated and control rat blood were followed over 8.0 hours. […] Compounds 82c and 82d were also tested in vivo (FIGS. 1C, 1D). […] In FIGS. 1A-1D the results are means±SEM, where n=6 rats; *P<0.05, **P<0.01, and ***P<0.001 vs. the STZ diabetic control group.

[4] = oral, 1.0 μM/kg, STZ diabetic rats

Row | SMILES | melting point | insulin secretion compared to the basal control [1] | insulin secretion compared to basal insulin secretion and to insulin secretion in the presence of glucose [1] | insulin secretion effect relative to exenatide ([1]; βTC6 cell line) | glucose-stimulated insulin release compared to basal controls (summary statement) [1] | glucose uptake compared to the standard reference exenatide [2] | fasting blood glucose levels in diabetic rat models (summary statement) [3] | anti-diabetic potency ranking ([3]; in vivo and in vitro results taken together) | reduction in blood glucose level compared to control diabetic groups [3, 4] | potency in reducing the blood glucose level ([3]; oral, 1.0 μM/kg, at 8 hours, STZ diabetic rats) | effect on blood glucose levels (not statistically significant) ([3]; oral, 1.0 μM/kg, followed over 8.0 hours, STZ diabetic rats)
1 | CN(CCO)c1ccnc(Cl)n1 [Compound 81c, 2-[(2′-Chloropyrimidin-4′-yl)-methylamino]ethanol] | 136 °C | significantly stimulated insulin secretions | stimulated insulin secretion significantly | comparable effects to exenatide | increase glucose-stimulated insulin release | remarkable potential to flush glucose into the βTC6 cells | decrease fasting blood glucose levels | most potent anti-diabetic compound | significant reduction in blood glucose level | high potency in reducing the blood glucose level | –
2 | OCCNc1ccnc(Cl)n1 [Compound 81f, 2-[(2′-Chloropyrimidin-4′-yl)amino]ethanol] | 116 to 117 °C | significantly stimulated insulin secretions | stimulated insulin secretion significantly | – | increase glucose-stimulated insulin release | remarkable potential to flush glucose into the βTC6 cells | decrease fasting blood glucose levels | – | significant reduction in blood glucose level | – | –
3 | CN(CCO)c1cc(Cl)ncn1 [Compound 82c, 2-[(6′-Chloropyrimidin-4′-yl)(methylamino)]ethanol] | – | significantly stimulated insulin secretions | stimulated insulin secretion significantly | – | increase glucose-stimulated insulin release | remarkable potential to flush glucose into the βTC6 cells | decrease fasting blood glucose levels | – | statistically significant reduction in blood glucose level | – | –
4 | Clc1cc(N2CCOCC2)ncn1 [Compound 82d, 4-(6′-Chloropyrimidin-4′-yl)morpholine] | – | – | – | – | increase glucose-stimulated insulin release | – | decrease fasting blood glucose levels | – | – | – | reduced blood glucose levels
